SMILES strings stand for the structures.

What is called melting point is the temperature, or range, at which the solid turns liquid.

With `CC1CCN(C2CCN(S(=O)(=O)c3cccc(-c4ccccc4C(F)(F)F)c3)CC2)CC1` [compound 68, 4-Methyl-1′-((2′-(trifluoromethyl)-[1,1′-biphenyl]-3-yl)sulfonyl)-1,4′-bipiperidine], the melting point fell in the range of 110 to 112 °C.
The same measure for `Cc1cc(C)cc(-c2cccc(S(=O)(=O)N3CCC(N4CCC(C)CC4)CC3)c2)c1` [compound 69, 1′-((3′,5′-Dimethyl-[1,1′-biphenyl]-3-yl)sulfonyl)-4-methyl-1,4′-bipiperidine]: 120 to 123 °C; for `CC1CCN(C2CCN(S(=O)(=O)c3cccnc3)CC2)CC1` [compound 71, 4-Methyl-1′-(pyridin-3-ylsulfonyl)-1,4′-bipiperidine]: 144 to 147 °C.
Next, `CC1CCN(C2CCN(S(=O)(=O)c3cccnc3Cl)CC2)CC1` [compound 72, 1′-((2-Chloropyridin-3-yl)sulfonyl)-4-methyl-1,4′-bipiperidine]: 122 to 124 °C; `CC1CCN(C2CCN(S(=O)(=O)c3cccnc3F)CC2)CC1` [compound 73, 1′-((2-Fluoropyridin-3-yl)sulfonyl)-4-methyl-1,4′-bipiperidine]: 120 to 123 °C.
Next, `CC1CCN(C2CCN(S(=O)(=O)c3ccc(Cl)nc3)CC2)CC1` [compound 74, 1′-((6-Chloropyridin-3-yl)sulfonyl)-4-methyl-1,4′-bipiperidine]: 178 to 182 °C; `CC1CCN(C2CCN(S(=O)(=O)c3cncc(Br)c3)CC2)CC1` [compound 75, 1′-((5-Bromopyridin-3-yl)sulfonyl)-4-methyl-1,4′-bipiperidine]: 171 to 173 °C.
`CC1CCN(C2CCN(S(=O)(=O)c3cn(C)c(=O)n(C)c3=O)CC2)CC1` [compound 76, 1,3-Dimethyl-5-((4-methyl-[1,4′-bipiperidin]-1′-yl)sulfonyl)pyrimidine-2,4(1H,3H)-dione] yielded a melting point of 212 to 215 °C.
The same measure for `CC1CCN(C2CCN(S(=O)(=O)c3nccn3C)CC2)CC1` [compound 77, 4-Methyl-1′-((1-methyl-1H-imidazol-2-yl)sulfonyl)-1,4′-bipiperidine]: 153 to 156 °C; for `CC1CCN(C2CCN(S(=O)(=O)c3cn(C)cn3)CC2)CC1` [compound 78, 4-Methyl-1′-((1-methyl-1H-imidazol-4-yl)sulfonyl)-1,4′-bipiperidine]: 139 to 142 °C.
Next, `Cc1noc(C)c1S(=O)(=O)N1CCC(N2CCC(C)CC2)CC1` [compound 79, 3,5-Dimethyl-4-((4-methyl-[1,4′-bipiperidin]-1′-yl)sulfonyl)isoxazole]: 158 to 161 °C.
For `CC1CCN(C2CCN(S(=O)(=O)c3cnc(Cl)s3)CC2)CC1` [compound 80, 2-Chloro-5-((4-methyl-[1,4′-bipiperidin]-1′-yl)sulfonyl)thiazole], the melting point was in the range of 141 to 143 °C.
The molecule `Cc1nc(Cl)sc1S(=O)(=O)N1CCC(N2CCC(C)CC2)CC1` [compound 81, 2-Chloro-4-methyl-5-((4-methyl-[1,4′-bipiperidin]-1′-yl)sulfonyl)thiazole] came in with a melting point of 117 to 119 °C.
On to `CC1CCN(C2CCN(S(=O)(=O)c3sc(Cl)nc3C3CC3)CC2)CC1` [compound 82, 2-Chloro-4-cyclopropyl-5-((4-methyl-[1,4′-bipiperidin]-1′-yl)sulfonyl)thiazole], for which the melting point was in the range of 139 to 141 °C.
The same measure for `CC1CCN(C2CCN(S(=O)(=O)c3cc(Br)cc4c3OCC4)CC2)CC1` [compound 86, 1′-((5-Bromo-2,3-dihydrobenzofuran-7-yl)sulfonyl)-4-methyl-1,4′-bipiperidine]: 128 to 132 °C; for `CC1CCN(C2CCN(S(=O)(=O)c3ccc(Cl)c4ccccc34)CC2)CC1` [compound 88, 1′-((4-Chloronaphthalen-1-yl)sulfonyl)-4-methyl-1,4′-bipiperidine]: 129 to 132 °C.

For the origin of these results see patent US20220024891A1 (The Board of Regents of the University of Texas System, priority 2018, published 2022).
